Experimental data: the NIST ThermoML archive (doi:10.1021/je030102f)

Assays:
[1] = 101.33 kPa, Liquid, vibrating tube
[2] = xn = mol fraction of the nth substance listed; conditions: 101.33 kPa, Liquid, vibrating tube

CC(C)=O [acetone]
[1]
Conditions | mass density [kg/m3]
283.15 K | 801.669
288.15 K | 796.037
293.15 K | 790.355
298.15 K | 784.638
303.14 K | 778.876
308.15 K | 773.065
313.14 K | 767.205
318.14 K | 761.288
323.14 K | 755.314

O [water]
[1]
Conditions | mass density [kg/m3]
283.15 K | 999.691
318.14 K | 990.13
323.14 K | 988.003

O [water] + CC(C)=O
[2], x2 = 0
Conditions | mass density [kg/m3]
283.15 K | 999.691
318.14 K | 990.13
323.14 K | 988.003

CC(C)=O [acetone] + CCC(=O)O
[2], x1 = 1
Conditions | mass density [kg/m3]
283.15 K | 801.669
288.15 K | 796.037
293.15 K | 790.355
298.15 K | 784.638
303.14 K | 778.876
308.15 K | 773.065
313.14 K | 767.205
318.14 K | 761.288
323.14 K | 755.314

CCC(=O)O [propanoic acid]
[1]
Conditions | mass density [kg/m3]
283.15 K | 1004.11
288.15 K | 998.688
293.15 K | 993.261
298.15 K | 987.847
303.14 K | 982.44
308.15 K | 977.037
313.14 K | 971.635
318.14 K | 966.24
323.15 K | 960.843

O [water] + CCC(=O)O
[2], x2 = 0
Conditions | mass density [kg/m3]
283.15 K | 999.691
318.14 K | 990.13
323.14 K | 988.003
